From PMC6150365, “Simultaneous Determination of Seven Components in Rat Plasma by the UPLC-MS/MS Method and Application of Pharmacokinetic Studies to SimiaoYong’an Decoction” (Molecules : A Journal of Synthetic Chemistry and Natural …, 2017)

Assay: Pharmacokinetic study in rats after oral administration of SYD extract and its single and combined TCM extracts (UPLC-MS/MS of plasma)
Conditions: male, Sprague-Dawley, rat, plasma, po, n = 6; for AUC(0-inf) / Cmax / MRT last / MRT inf / Tmax / AUC(0-t): rat plasma; for MRT last: MRT(0–t); for MRT inf: MRT(0–∞); for half-life: t1/2, rat plasma
[1] = 2.14 g·kg^−1 (extract), oral LJ + GU extract
[2] = 2.15 g/kg, oral LJ extract 2.15 g/kg
[3] = 3.29 g·kg^−1 (extract), oral LJ + AS extract
[4] = 3.29 g·kg^−1 extract, oral LJ + AS extract
[5] = 4.01 g·kg^−1 (extract), oral LJ + AS + GU extract
[6] = 4.5 g·kg^−1 (extract), oral LJ + SN extract
[7] = 4.5 g·kg^−1 extract, oral LJ + SN extract
[8] = 4.73 g/kg, oral LJ + SN + GU extract 4.73 g/kg
[9] = 5.43 g/kg, oral LJ + SN + AS extract 5.43 g/kg
[10] = 8.25 g/kg, oral SYD extract 8.25 g/kg

Protocol: Pieces of LJ, SN, AS and GU were weighed according to the proportion of 3:3:2:1 with appropriate amounts. The mixed pieces were crushed and decocted two times (60 min each time) with water (1:10 w/v) after being soaked for 60 min. The decoctions were then combined and condensed to the concentration of 0.5 g/mL, after which 95% ethanol was slowly added to the concentrate until a final ethanol concentration of 70% was reached. The SYD solution was set at room temperature overnight and then was filtered. The solvent was recovered, and the residue was dried under reduced pressure. A certain amount of the water extract of SYD was weighed and then dissolved with purified water for intragastric (oral) administration solution. The single herbs and different combination groups such as LJ, SN, AS, GU, LJ + SN, LJ + AS, LJ + GU, SN + AS, SN + GU, AS + GU, LJ + SN + AS, LJ + SN + GU, LJ + AS + GU and SN + AS + GU were prepared according to the procedure of SYD.
Male Sprague-Dawley (SD) rats (body weight 250 ± 10 g) were supplied by the SPF (Beijing) Biotechnology Co., Ltd. (Certificate No.: SCXK 2016-0002, Beijing, China). The animals were maintained in controlled conditions (temperature 20–25 °C, relative humidity 55–60% and 12-h light/12-h dark cycle) with free access to standard laboratory food and water for seven days of acclimation and then fasted for 12 h before each experiment but allowed to drink freely during this time.
Ninety male SD rats were randomly separated into 15 groups and administered a dosage of extract via gastric gavage once per day; detailed information about the oral daily dose of SYD extract and the corresponding single and combined TCMs (LJ, SN, AS, GU, LJ + SN, LJ + AS, LJ + GU, SN + AS, SN + GU, AS + GU, LJ + SN + AS, LJ + SN + GU, LJ + AS + GU, SN + AS + GU and SYD) is listed in Table 4.
Each plasma sample (200 μL) with 50 μL IS solution added was spiked into 100 μL 1% formic acid distilled water solution and then vortexed for 1 min. Protein was precipitated by adding 600 μL of methanol to the mixture. After being vortexed and sonicated, the samples were centrifuged at 25,000 r/min, 4 °C for 10 min. The supernatant of each sample was transferred to a new 2-mL centrifuge tube and evaporated to dryness by N2 at 40 °C. Finally, the residue was dissolved in 100 μL methanol–water (1:1, v/v), followed by centrifugation at 30,000 r/min, 4 °C for 10 min, and 10-μL supernatant aliquots were injected into the UPLC-MS/MS system for analysis.
The SYD was decomposed into 15 groups of compatibility combinations (LJ, SN, AS, GU, LJ + SN, LJ + AS, LJ + GU, SN + AS, SN + GU, AS + GU, LJ + SN + AS, LJ + SN + GU, LJ + AS + GU, SN + AS + GU and SYD). The 15 combinations were weighed according to the proportion of 3:3:2:1 with appropriate amounts and prepared by the method described in “Section 3.2”. Six male SD rats (body weight 250 ± 10 g) of each compatibility group were used in the pharmacokinetic study. After 12-h fast, rats of the different groups were orally administered the respective extract dissolved in saline (Table 4). Venous blood (0.45 mL) was obtained from the orbit vein and collected in heparin-pretreated polypropylene centrifuge tubes at 0.083 h, 0.17 h, 0.25 h, 0.50 h, 0.75 h, 1.0 h, 1.5 h, 2.0 h, 3.0 h, 4.0 h, 6.0 h, 8.0, 12 h and 24 h post-dose. The plasma was separated by centrifugation at 8000 r/min for 10 min and then stored at −20 °C until analysis. The amount of each analyte in the plasma was estimated by UPLC-MS/MS analysis as described in Section 3.5.
Non-compartmental methods using Phoenix WinNonlin 7.0 software provided by the Beijing University of Chinese Medicine were used to analyze plasma concentration versus time profiles and to estimate the following pharmacokinetic parameters: terminal elimination half-lives (t1/2), area under the plasma concentration versus time curve from zero to last sampling time (AUC), and the mean residence time (MRT).

COC(=O)C1=CO[C@@H](O[C@@H]2O[C@H](CO)[C@@H](O)[C@H](O)[C@H]2O)[C@@H]2[C@@H](C)[C@@H](O)C[C@H]12 [Loganin, loganin]
AUC(0-inf) [1]: 5510 ± 2000 ng·h/mL | Cmax [1]: 690 ± 440 ng/mL | MRT last [1]: 8.17 ± 0.62 h | MRT inf [1]: 88.5 ± 42.1 h | Tmax [1]: 1.25 ± 0.59 h | half-life [1]: 8.07 ± 3.65 h | AUC(0-t) (2.14 g·kg^−1 extract, oral LJ + GU extract): 1600 ± 70 ng·h/mL | AUC(0-t) [2]: 1520 ± 110 ng·h/mL | AUC(0-inf) [2]: 1670 ± 340 ng·h/mL | Cmax [2]: 1140 ± 520 ng/mL | MRT last [2]: 3.65 ± 1.03 h | MRT inf [2]: 6.74 ± 6 h | Tmax [2]: 1.25 ± 0.59 h | half-life [2]: 6.71 ± 4.19 h | Cmax [3]: 660 ± 350 ng/mL | MRT last [3]: 7.93 ± 1.33 h | MRT inf [3]: 80.9 ± 41.5 h | Tmax [3]: 1.33 ± 0.52 h | half-life [3]: 7.89 ± 2.42 h | AUC(0-t) [4]: 1720 ± 310 ng·h/mL | AUC(0-inf) [4]: 5400 ± 1940 ng·h/mL | AUC(0-t) [5]: 1660 ± 120 ng·h/mL | AUC(0-inf) [5]: 5350 ± 1940 ng·h/mL | Cmax [5]: 540 ± 170 ng/mL | MRT last [5]: 8.06 ± 0.78 h | MRT inf [5]: 81.9 ± 41.3 h | Tmax [5]: 1.5 ± 0.45 h | half-life [5]: 7.91 ± 2.17 h | MRT last [6]: 7.79 ± 1.38 h | MRT inf [6]: 80 ± 40.2 h | Tmax [6]: 1.54 ± 0.56 h | half-life [6]: 9.39 ± 2.6 h | AUC(0-t) [7]: 1790 ± 440 ng·h/mL | AUC(0-inf) [7]: 5470 ± 2060 ng·h/mL | Cmax [7]: 680 ± 100 ng/mL | AUC(0-t) [8]: 1840 ± 450 ng·h/mL | AUC(0-inf) [8]: 5510 ± 2020 ng·h/mL | Cmax [8]: 720 ± 450 ng/mL | MRT last [8]: 7.72 ± 1.48 h | MRT inf [8]: 79.3 ± 40.8 h | Tmax [8]: 1.5 ± 0.45 h | half-life [8]: 6.83 ± 2.11 h | AUC(0-t) [9]: 1160 ± 780 ng·h/mL | AUC(0-inf) [9]: 1180 ± 770 ng·h/mL | Cmax [9]: 660 ± 483 ng/mL | MRT last [9]: 2.5 ± 0.7 h | MRT inf [9]: 4.07 ± 3.93 h | Tmax [9]: 1.5 ± 0.45 h | half-life [9]: 6.25 ± 4.29 h | AUC(0-t) [10]: 1980 ± 1380 ng·h/mL | AUC(0-inf) [10]: 2170 ± 1400 ng·h/mL | Cmax [10]: 770 ± 460 ng/mL | MRT last [10]: 4.71 ± 1.34 h | MRT inf [10]: 8.87 ± 8.1 h | half-life [10]: 7.45 ± 3.39 h
